Source: patent US20060111289A1, “Compositions and methods of using Alpha-fetoprotein growth inhibitory peptides” (Serometrix, LLC,, priority 2004, published 2006)

B1: α2-antiplasma: positive control in the platelet aggregation assay (protein, UniProt P08697 40-491, looked up)
Alpha-2-antiplasmin: NQEQVSPLTLLKLGNQEPGGQTALKSPPGVCSRDPTPEQTHRLARAMMAFTADLFSLVAQTSTCPNLILSPLSVALALSHLALGAQNHTLQRLQQVLHAGSGPCLPHLLSRLCQDLGPGAFRLAARMYLQKGFPIKEDFLEQSEQLFGAKPVSLTGKQEDDLANINQWVKEATEGKIQEFLSGLPEDTVLLLLNAIHFQGFWRNKFDPSLTQRDSFHLDEQFTVPVEMMQARTYPLRWFLLEQPEIQVAHFPFKNNMSFVVLVPTHFEWNVSQVLANLSWDTLHPPLVWERPTKVRLPKLYLKHQMDLVATLSQLGLQELFQAPDLRGISEQSLVVSGVQHQSTLELSEVGVEAAAATSIAMSRMSLSSFSVNRPFLFFIFEDTTGLPLFVGSVRNPNPSAPRELKEQQDSPGNKDFLQSLKGFPRGDKLFGPDLKLVPPMEEDYPQFGSPK

How the values were obtained:
[1] = test system: human platelets; assay: Platelet aggregation in human platelet-rich plasma; type: cell-based; parameters: % Inhibition Of Activity: Platelet Agg. ADP / % Inhibition Of Activity: Platelet Agg. AA / % Inhibition Of Activity: Platelet Agg. Coll: concentration or dose not given beside the values; conditions: for % Inhibition Of Activity: Platelet Agg. ADP: ADP-induced; for % Inhibition Of Activity: Platelet Agg. AA: arachidonic acid-induced; for % Inhibition Of Activity: Platelet Agg. Coll: collagen-induced; for Inhibition (%) Of Platelet Aggregation, Adenosine Diphosphate (ADP) 2.5 μM / Inhibition (%) Of Platelet Aggregation, Arachidonic Acid (AA) 0.3 mM / Inhibition (%) Of Platelet Aggregation, Collagen (COLL) 2 μg/ml / Inhibition (%) Of Platelet Aggregation, Epinephrine: peptide inhibitors 30 & 100 μM
Description: FIG. 9 presents exemplary data showing platelet aggregation modulation using 0.5 ml of normal human platelet-rich plasma (PRP) with varying amounts of P149 or P 149b using 2.5×10^6 platelets per reaction vessel.
FIG. 10 presents exemplary data showing platelet aggregation activation by arachidonic acid (AA) and collagen using P149-treated platelet suspensions • Panel A1: AA alone; • Panel A2: AA followed by epinephine (EPI) and EPI alone using P149b; • Panel A3: CD62P flow cytometry fluorescence quenching by P149; • Panel B1: collagen alone and collagen+P149; • Panel B2: collagen alone; collagen+P149a showing aggregation diminution.
GIP-derived peptide fragments and/or subfragments have been assayed for platelet aggregation by measuring light transmissions with an aggregometer using a stirred human platelet suspension. Kinlough-Rathbone et al., In: Platelet Aggregation in Measurements of Platelet Function, Eds. Harker L A, Zimmerman T S., Churchill Livingstone, London. pp. 64-87 (1983); and Whittle et al., “Specificity between the anti-aggregatory actions of prostacyclin, prostaglandin Eland D2 on platelets” In: Mechanisms of stimulus—response coupling in platelets, Eds. V. V. K., MacIntyre D E, Scully M F., New York and London: Plenum Press. pp. 109-115 (1985).
The ability of GIP and its fragments were individually examined for aggregation inhibition using citrated human platelet-rich plasma (PRP). The peptides were freshly dissolved in 0.15 M NaCl containing 2.5×10^6 platelets/ml. […]

[2] = test system: MCF-7 cells; assay: Estrogen-dependent MCF-7 foci formation assay; type: cell-based, human; parameters: % Inhibition Of Activity: MCF-7 foci formation: concentration or dose not given beside the values
Source text: Mizejewski et al., “Alpha-fetoprotein derived synthetic peptides: assay of an estrogen-modifying regulatory segment” Mol Cell Endocrinol 118:15-23 (1996). The P149 peptide inhibited the formation of tumor cell foci formed as a result of the accumulation of breast cancer cells which clump together due to loss of contact inhibition.

[3] = Estrogen fetotoxicity; parameters: concentration or dose not given beside the values; conditions: in vivo
[4] = test system: 6WI-1 mammary tumor cells; assay: 6WI-1 mammary tumor in 15-day old mouse pups (6 day assay); type: in vivo; parameters: % Inhibition Of Activity: 6WI-1 Pup Ascites: concentration or dose not given beside the values; conditions: mouse pups
Source text: As an alternative model of the 6WI-I mammary tumor in adult mice, an inocula of 1×10^6 tumor cells injected into 15-day old mouse pups provided a 6 day rather than a 12 day assay and replicated the same tumor growth suppression by GIP.

[5] = test system: immature mouse uterine growth; assay: E2-activated immature mouse uterine growth assay; type: in vivo; parameters: concentration or dose not given beside the values
[6] = test system: 6WI-1 mammary tumor cells; assay: Mouse ascites mammary tumor assay (6WI-1 isograft); type: in vivo; conditions: for Suppression of accumulation of cells and ascites fluid volume (anticancer activity): 1.0 μg peptide per day for 11 days; for % Inhibition Of Activity: 6WI-1 Acites Volume / % Inhibition Of Activity: 6WI-1 Body Weight / % Inhibition Of Activity: 6WI-1 Cell Prol: 6WI-1 mouse mammary ascites tumor
Description: The growth suppression of the mammary ascites tumor by AFP peptides and its fragments P149a, P149b and P149c, and control peptides were determined in non-estrogen dependent assays which measured tumor cell growth and ascites accumulation of 6WI-1 mammary transplanted NYLAR/nya mice. […] Tumor cell inocula included doses of 0.3, 1.0, and 3.0×10^6 cells which produced host mortality at 12-14 days which was lethal in 100% of the animals. Following peptide dose titration studies, mice inoculated with 6WI-1 mammary cells were injected with a previously-determined optimal dose of 1.0 μg peptide per day or saline for 11 days. On day 12 following inoculation, the total accumulated ascites fluid volume and tumor cells in the peritoneal cavity of each animal were harvested and the cell count determined.
Inoculation of mice with all three cell doses led to an increase in body weight from 25 g (day 0) to approximately […] by day 12, due to the accumulation of tumor cells and ascites fluid in the intraperitoneal cavity. An average cell count in accumulated ascites fluid on day 12 was greater than 10^8 cells/ml with a total ascites volume approximating 20 mls. Tumor cell proliferation in this model has been reported to correlate with the volume of ascites fluid accumulated.
The 6WI-1 mouse mammary tumor studies involving peptide and non-peptide treatment were further compared by histopathological analysis performed on hematoxylin/eosin stained tissue sections.

[7] = test system: immature mouse uterine growth; assay: E2-activated immature mouse uterine growth assay; type: in vivo; parameters: % Inhibition Of Activity: Uterine Growth: concentration or dose not given beside the values; conditions: mouse, in vivo
Description: FIG. 3 presents exemplary data showing the growth suppressive activities of the oligomeric forms of P149, cyclic versus linear, are depicted in various in vitro and in vivo models. Biological activity was determined by three growth-dependent bioassays, namely; • Panel-A and A1) an immature rodent uterine bioassay; • Panel-B and B 1) an in vitro MCF-7 foci assay; • Panel-C and C1) an in vitro tumor cell cytostatic assessment. […] See text for details. Scrambled peptide=P327. […]

[8] = test system: human kidney tumor cell line
[9] = test system: MCF-7 and 6WI-1 tumor cells; assay: Tumor cell adhesion to ECM proteins in microtiter plates; type: cell-based, human, murine
Description: FIG. 8 presents exemplary data showing the inhibition of P149 in the cellular adhesion of cancer cells to extracellular matrix (ECM) proteins for both human MCF-7 breast cancer cells and for murine 6WI-1 ascites-adapted mammary tumor cells. The cellular adhesion assay was performed in 96-well microtiter plates (Nunc Company, Denmark, catalog #263339) and the wells were pre-coated with 100 microliters of each of the above-mentioned ECM proteins for 24 hours as previously determined. After adding tumor cells, the plates were then incubated at 37° C. for various times; while 6WI-1 cells usually required only 2-4 hours incubation for adhesion; MCF-7 cells required 24 hours for attachment following trypsinization. For both cell lines, the cell culture media contained 5% calf serum to ensure cell attachment. The plates were washed twice with Hank's Saline, fixed in 0.5 mL of 37% formaldehyde, stained with crystal violet and read at […] on a microplate reader. Inset: Using a CyQUANT® stain kit, (Hoechst Corp., Germany) the plates were first exposed to a freeze/thaw cycle at −70° C. for 24 hours and 37° C. for 10 minutes. CyQUANT® buffer solution (150 microliters) was added to each well, and the cell adhesion was measured by fluorescence spectroscopy and quantitated using an ImageQuant® plate scanner (Fluorimager 595, Molecular Dynamics, Sunnyvale, Calif.).
This attachment of GIP was a slightly weaker adhesion matrix than was gelatin, chondroitin sulfate, and poly-lysine which approximated 30-35%. Using P149, the optimal amount of peptide required to inhibit tumor cell adhesion was determined by absorbing soluble peptide (1.0 pg to 100 μg) to the walls of microtiter plates. A constant number of MCF-7 tumor cells (i.e., for example, 1×10^5) were then added to the microtiter well and adhesion quantitated by fluorescence. […] The quantitation of MCF-7 and 6WI-1 cell adhesion in the presence of peptide versus peptide-free media was then determined on ECM-coated microtiter plates using 3 μg GIP/well as a competitive inhibitor. The P149 peptide was added to the wells immediately after the cells were dispensed and then the mixture was incubated as described. The AFP peptide was capable of cell adhesion inhibition in most of the ECM proteins in both tumor cell lines. Inhibition of mouse and human tumor cell adhesion was somewhat equivalent using collagen IV, fibrinogen, fibronectin, and thrombospondin. […] Thus, the GIP was found capable of eliciting different attachment inhibitions dependent on the type of ECM protein coating the wall of the microtiter plate and also the tumor cell type involved.

| Molecule | % Inhibition Of Activity: Platelet Agg. ADP [1] [%] | % Inhibition Of Activity: Platelet Agg. AA [1] [%] | % Inhibition Of Activity: Platelet Agg. Coll [1] [%] | Inhibition (%) Of Platelet Aggregation, Adenosine Diphosphate (ADP) 2.5 μM [1] | Inhibition (%) Of Platelet Aggregation, Arachidonic Acid (AA) 0.3 mM [1] | Inhibition (%) Of Platelet Aggregation, Collagen (COLL) 2 μg/ml [1] | Inhibition (%) Of Platelet Aggregation, Epinephrine [1] | % Inhibition Of Activity: MCF-7 foci formation [2] [%] | % Inhibition Of Activity: Estrogen Fetotoxicty [3] [%] | % Inhibition Of Activity: 6WI-1 Pup Ascites [4] [%] | % Inhibition Of Activity: Uterine Growth, Enzymatic Fragments [5] [%] | Suppression of accumulation of cells and ascites fluid volume (anticancer activity) [6] | % Inhibition Of Activity: 6WI-1 Acites Volume [6] [%] | % Inhibition Of Activity: 6WI-1 Body Weight [6] [%] | % Inhibition Of Activity: 6WI-1 Cell Prol [6] [%] | % Inhibition Of Activity: Uterine Growth [7] [%] | % Inhibition Of Activity: Kidney tumor growth [8] [%] | % Inhibition Of Activity: Cell Adhesion [9] [%] | other results |
| --- | --- | --- | --- | --- | --- | --- | --- | --- | --- | --- | --- | --- | --- | --- | --- | --- | --- | --- | --- |
| AADIIIGHLCIRHE (listed as Homo sapiens) [P149b] | 95 | 100 | 90 | 95-98% | 100% | 90% | No effect | 31 | 67 | 32 | 19 | but not P149a or P149b, significantly suppressed | 26 | 31 | 34 | 22 | 50 | 58 | Inhibition of ADP-induced platelet aggregation (FIG. 9) ([1]; 0.5 ml PRP, 2.5×10^6 platelets per reaction vessel): 70%; Inhibition of ADP-induced platelet aggregation ([1]; ADP 3 μM, P149 at 100-300 μM PRP): 80-90%; Inhibition of arachidonic acid (AA)-induced platelet aggregation ([1]; for several minutes until epinephrine was added): complete aggregation inhibition |
| HPEAKRMPCAEDYLSVVLNQLCVLEHKTPVSDRV (listed as Homo sapiens) [P263, reference compound] | 0 | 0 | 0 |  |  |  |  | 0 | 0 | 0 | 0 |  | 10 | 13 | 5 | 0 | 0 | 0 | % Inhibition Of Activity: 6WI-1 Peptide Combos ([6]; peptide combination): 0% |
| LSEDKLLACGEG (listed as Homo sapiens) [P149a] | 40 | 0 | 0 | 30-40 (biphasic % | No effect | No effect | No effect | 33 | 63 | 21 | 24 | but not P149a or P149b, significantly suppressed | 21 | 22 | 28 | 28 | 25 |  |  |
| Risotcetin [reference compound] |  |  |  | 100% | 100% | 100% | 100% |  |  |  |  |  |  |  |  |  |  |  |  |
| B1 |  |  |  | 85-90% | 100% | 90% | No effect |  |  |  |  |  |  |  |  |  |  |  |  |
